Reference: patent US7662361B2, “Methods and compositions for modulating drug activity through telomere damage” (priority 1999, dated 2010)

How the values were obtained:
PC3 cells = assay: Time course of apoptotic changes (caspase 3, PARP cleavage, DNA fragmentation, DNA-histone release); type: cell-based, human; settings: 20 nM paclitaxel
Procedure: Caspase Activity. The activity of Caspase 3 was measured using the ApoAlert CPP32 assay (Clontech Laboratories, Palo Alto, Calif.). Briefly, 1×10^6 cells were lysed using the lysis buffer provided in the assay kit. The lysate was stored at −20° C. and analyzed within 1 week. Enzyme activity was detected by the cleavage of the substrate, Asp-Glu-Val-Asp-7-amino-4-trifluoromethyl coumarin (DEVD-AFC) to AFC, which emits a yellow-green fluorescence at 505 nm. The increase in caspase activity is measured as the ratio of the fluorescence intensity of a agent-treated sample (e.g., paclitaxel) to that of control cells collected at the same time.
PARP Cleavage. […] PARP cleavage was analyzed by immunoblotting. […] Protease inhibitors were used to minimize proteolytic cleavage of PARP during processing. […] Samples were sonicated on ice, resuspended using a 21 gauge needle, and then incubated at 75° C. for 15 min. After centrifugation, an aliquot representing 1.5×10^5 cells was loaded on a 10% SDS polyacrylamide gel and run at 30 mA overnight. The gel was transferred onto a […] nitrocellulose membrane by electroblotting. The membrane was incubated with blocking solution (5% non-fat dry milk in PBS containing 0.1% Tween 20) for 1 hr, followed by incubation with the PARP monoclonal antibody overnight at 4° C. and subsequently the anti-mouse immunoglobulin. After washing the membrane in PBS twice for 5 min each and once for 30 min, the immunoreactive bands were visualized by incubation of the membrane with the chemiluminescence immunoblot kit.
Release of DNA-Histone Complex to Cytoplasm. The level of DNA-histone mono- and oligonucleosomes in the cytoplasm was measured using the cell death detection ELISA kit. Briefly, 5000 cells were lysed in the lysis buffer. The cytoplasmic fractions of the lysates were placed in a […] precoated with mouse antihistone primary antibody and mouse anti-DNA antibody conjugated to peroxidase. The peroxidase substrate, 2,2′-azido-di-[3-ethylbenzthiazoline sulfonate], was applied and the absorbance at 405 nm was measured.
DNA Fragmentation. […] DNA was extracted twice with phenol/chloroform (1:1) and once with chloroform, and precipitated by adding 0.2 volume 10 M […] and 2 volumes ethanol. The pellet obtained after centrifugation was resuspended in 100 mM Tris-HCl and 10 mM EDTA (pH 8.0). The amount of DNA was measured by the absorbance at 260 nm, using a spectrophotometer. Samples showing a 260:280 absorbance ratio of >1.8, which ascertained the purity of the isolated DNA, were analyzed by gel electrophoresis. […] The DNA laddering pattern was visualized by UV transillumination and photographed.

[1] = system: telomerase activity of FaDu cells; assay: TRAP telomerase activity in drug-treated cells; type: cell-based, human; settings: 200 nM paclitaxel
Procedure: For the preparation of cell and tissue extracts, cells and tissue were harvested, washed, and stored at −70° C. Cells were then lysed in a SDS-based lysis buffer (10 mM Tris.HCl, pH 7.5, 1 mM MgCl2, 1 mM EGTA, 0.1 mM phenylmethylsulfonyl fluoride, 5 mM β-mercaptoethanol, 0.1% CHAPS, and 10% glycerol), on ice for 10 min. To this mixture, three volumes of CHAPS-based buffer (10 mM Tris-HCl, pH 7.5, 1 mM MgCl2, 1 mM EGTA, 0.1 mM phenylmethylsulfonyl fluoride, 5 mM β-mercaptoethanol, 0.5% CHAPS, and 10% glycerol) were added and kept on ice for 5 min. […] For the extraction of tissues, tissues were homogenized in SDS-based lysis buffer with a Kontes pellet pestle (Fisher, Pittsburgh, Pa.), mixed with three volumes of CHAPS-based buffer, and centrifuged were centrifuged at 8,000 g for 15 min at 4° C. The supernatant was kept at −20° C. The protein concentration of the supernatant was determined using Bicinchoninic Acid Kit (Sigma, St Louis, Mo.). The protein concentration was adjusted to 0.5 μg/μl with CHAPS-based buffer. Samples with equal amounts of protein (1-2 μg) were analyzed by TRAP. […] The TRAP reaction mixture contained 2-4 μl of protein extract, 20 mM Tris.HCl (pH 8.3), 1.5 mM MgCl2, 63 mM KCl, 0.005% Tween-20, 1 mM EGTA, 50 μM dNTPs, 0.1 μg of TS primer, 0.1 mg/ml bovine serum albumin. The mixture was incubated at 30° C. for 30 min, then at 90° C. for 2 min.
This was accomplished by using phenol/chloroform extraction of the cell lysate, as follows. One μg of tRNA and 0.1 ng internal control template were added to the reaction solution after primer extension. The total volume of the mixture was brought to 100 μl with water, mixed with an equal volume of buffer saturated phenol (Life Technology) and then centrifuged at 18,000 g for 3 min, at room temperature. The top aqueous layer (90 μl) was carefully transferred to a new tube and mixed with an equal volume of chloroform:isoamyl alcohol (24:1) solution and centrifuged at 18,000 g for 3 min, at room temperature. The top aqueous layer (80 μl) was again transferred to a new tube and the nucleotides were precipitated with 0.2 volume of 3 M sodium acetate (pH 5.3) and 3 volume of 100% ethanol at −70° C. for at least 2 hr. The mixture was centrifuged at 18,000 g for 15 min at 4° C. […]
The template for the internal standard was amplified by PCR and purified by spin columns (QIAquick PCR purification kit, Qiagen, Valencia, Calif.). The concentration was determined by a spectrophotometer.
PCR was performed on the GeneAmp PCR system 2400 (Perkin Elmer) and initiated by 1 cycle at 94° C. for 3 min, 50° C. for 4 min, and 68° C. for 2 min, then 25 rounds at 94° C. for 30 sec, 50° C. for 30 sec, and 68° C. for 90 sec, followed by 68° C. for 10 min. […] The gel was then dried and the amplification products were detected. […]

FaDu cells = assay: SRB assay of cell number, AZT and paclitaxel; type: cell-based, human; settings: 24 hr
Procedure: In brief, cells were seeded onto 96-well plates. To avoid changes in drug concentration caused by excessive evaporation of medium in wells located at the edge of the plate only the inner wells in 96-well plates were used. The outer wells contained only tissue culture media to serve as blanks. At the end of drug treatment, the culture medium was removed from the wells by aspiration and the cells were then fixed by incubating with 0.2 ml 10% trichloroacetic acid at 4° C. for 1 hr, followed by five washes with distilled water. The plates were then air-dried after which SRB solution (0.05 ml of 0.4%) was added to stain cells for 10 min at room temperature. […] The amount of SRB was measured by absorbance at 490 nm using an EL 340 microplate biokinetics reader (Bio-Tek Instruments, Inc., Winooski, Vt.). The absorbance is proportional to the number of cells attached to the culture plate. […]
Drug activity evaluation. Agent effect was measured in three ways, i.e., enumeration of the number of cells that remained attached in culture flask, enumeration of the number of cells that detached from the growth surface, and by measuring changes in apoptosis. […] The remaining cell number after agent treatment was measured using the sulforhodamine B (SRB) assay. The drug-induced detachment of cells from the growth surface was determined by counting the attached and detached cells. […]

FaDu, MCF7 and PC3 cells = assay: Cell Death Detection ELISA, release of DNA-histone complex; type: cell-based, human; settings: single agents vs untreated controls
Procedure: Apoptosis was measured as the release of DNA-histone complex from the nucleus to the cytoplasm, using the Cell Death Detection ELISA kit which quantifies the amount of DNA-histone complex released into the cytoplasm. Briefly, drug-treated cells were collected and lysed in the lysis buffer. The cytoplasmic fractions of the lysates were placed in wells of a 96-well microtiter plate pre-coated with mouse antihistone primary antibody and mouse anti-DNA-antibody conjugated to peroxidase. The peroxidase substrate, 2,2′-azido-di-[3-ethylbenzthiazoline sulfonate], was applied and the absorbance at 405 nm was measured.
Treatment Protocol. Treatment with the above agents was initiated after cells were allowed to attach to the growth surface in culture flasks. […]
Drug activity evaluation. Agent effect was measured in three ways, i.e., enumeration of the number of cells that remained attached in culture flask, enumeration of the number of cells that detached from the growth surface, and by measuring changes in apoptosis. […] The remaining cell number after agent treatment was measured using the sulforhodamine B (SRB) assay. The drug-induced detachment of cells from the growth surface was determined by counting the attached and detached cells. Drug-induced apoptosis was measured using the Cell Death Detection ELISA kit which measures the release of DNA-histone complex from the nucleus to the cytoplasm. […]

solid tumors = settings: Gan et al (1996); read-out: concentration that caused 50% cytotoxicity in solid tumors; cited from earlier work
[2] = system: human pharynx FaDu xenografts; assay: Antitumor effect in mice bearing FaDu xenografts
Procedure: (§1) The activity of paclitaxel, with or without AZT, was evaluated in immunodeficient mice (male Balb/c nu/nu mice, 6-8 weeks old) bearing the human pharynx FaDu xenografts. […] The saline control group received injections of 200 μl/day of physiological saline of five consecutive days. The paclitaxel group received injections of 10 mg/kg/day paclitaxel dissolved in Cremophor and ethanol (i.e., Taxol) in a volume of 200 μl for five consecutive days. The AZT group received a seven-day infusion of AZT at a rate of 200 ng/hr by a subcutaneously implanted Alzet minipump. […] Animal weights and tumor sizes were measured on days 1, 3, 6, 8, and 10 after initiation of the paclitaxel treatment.
The antitumor effect of the drug treatments was measured in three ways. The first was the reduction in tumor size. Tumor sizes were determined by first preparing a mold of the extruding tumor using Jeltrate, a rapidly setting molding material, and then preparing and weighing the countermold. Second, the apoptotic effect was measured. […] The tumor sections were evaluated morphologically for tumor cell density, and density of apoptotic cells. […] Third, the ability of drug treatment to prolong the survival time was measured. For this study, the animals were monitored for 100 days, or until moribundity, defined by a tumor length exceeding 1.0 cm, was reached.

[3] = Host toxicity (body weight, death) in xenograft-bearing mice; settings: single agents
Procedure: as §1

CC(=O)O[C@H]1C(=O)[C@@]2(C)[C@H]([C@H](OC(=O)c3ccccc3)[C@]3(O)C[C@H](OC(=O)[C@H](O)[C@@H](NC(=O)c4ccccc4)c4ccccc4)C(C)=C1C3(C)C)[C@]1(OC(C)=O)CO[C@@H]1C[C@@H]2O [paclitaxel]
caspase activation, time of occurrence (PC3 cells; attached cells): 24 h | PARP cleavage completed (PC3 cells; detached cells): < 72 h | PARP cleavage first detected (PC3 cells; detached cells): 24 h | caspase activation first detected (PC3 cells; detached cells): 12 h | caspase activation peak (PC3 cells; detached cells): 36 h | internucleosomal DNA fragmentation and release of DNA-histone complex first detected (PC3 cells; detached cells): 24 h | peak telomerase activity ([1]; 3 hr): ~180 % of control value | telomerase activity ([1]; 24 hr): returning to the baseline level | telomerase activity ([1]; 48 hr): 50 % of the control values | Emax (FaDu cells; Homo sapiens, FaDu, paclitaxel alone, up to 10 μM, read-out: maximum effect (reduction of cell number)): 35% | cell number (FaDu cells; paclitaxel alone 100 nM, fixed concentration method): about 65 % of the control value | release of DNA-histone complex from the nucleus to the cytoplasm (FaDu, MCF7 and PC3 cells): significant enhancement | IC50 (solid tumors): 1000 nM | median time to reach moribundity ([2]; Kaplan Meier analysis, monitored 100 days): 42 days | tumor-free survivors ([2]; of 12 animals): did not show tumor-free survivors | toxicity-related death [3]: no toxicity-related death
